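Dose response: 5 concentrations. Exposure: 48 h. Format: 96-well plates. Endpoint: linear interpolation; highest concentration if not reached. Definition used: TGI = concentration required for complete inhibition of growth.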
What was measured:
Experiment in all cases: NCI tumour cell line growth inhibition, 48 h
HS 578T breast = tested on: HS 578T breast
HCC-2998 colon = tested on: HCC-2998 colon
SR leukemia = tested on: SR leukemia
UACC-62 melanoma = tested on: UACC-62 melanoma
786-0 renal = tested on: 786-0 renal
SNB-75 CNS = tested on: SNB-75 CNS
MOLT-4 leukemia = tested on: MOLT-4 leukemia
OVCAR-8 ovarian = tested on: OVCAR-8 ovarian
K-562 leukemia = tested on: K-562 leukemia
T-47D breast = tested on: T-47D breast
SF-268 CNS = tested on: SF-268 CNS
RPMI-8226 leukemia = tested on: RPMI-8226 leukemia
MDA-N = tested on: MDA-N
PC-3 prostate = tested on: PC-3 prostate
UO-31 renal = tested on: UO-31 renal
SK-MEL-5 melanoma = tested on: SK-MEL-5 melanoma
ACHN renal = tested on: ACHN renal
NCI-H23 lung = tested on: NCI-H23 lung
BT-549 breast = tested on: BT-549 breast
M14 melanoma = tested on: M14 melanoma
NCI-H460 lung = tested on: NCI-H460 lung
HL-60(TB) leukemia = tested on: HL-60(TB) leukemia
HOP-62 NSCLC = tested on: HOP-62 NSCLC
SNB-19 CNS = tested on: SNB-19 CNS
A549 NSCLC = tested on: A549 NSCLC
HCT-116 colon = tested on: HCT-116 colon
HT29 colon = tested on: HT29 colon
OVCAR-5 ovarian = tested on: OVCAR-5 ovarian
SK-MEL-28 melanoma = tested on: SK-MEL-28 melanoma
TK-10 renal = tested on: TK-10 renal
IGROV1 ovarian = tested on: IGROV1 ovarian
NCI-H522 lung = tested on: NCI-H522 lung
SK-MEL-2 melanoma = tested on: SK-MEL-2 melanoma
MDA-MB-231 breast = tested on: MDA-MB-231 breast
MDA-MB-435 = tested on: MDA-MB-435
LOX IMVI melanoma = tested on: LOX IMVI melanoma
NCI/ADR-RES ovarian = tested on: NCI/ADR-RES ovarian
SK-OV-3 ovarian = tested on: SK-OV-3 ovarian
HCT-15 colon = tested on: HCT-15 colon
KM12 colon = tested on: KM12 colon
CCRF-CEM leukemia = tested on: CCRF-CEM leukemia
EKVX NSCLC = tested on: EKVX NSCLC
SW-620 colon = tested on: SW-620 colon
U251 CNS = tested on: U251 CNS
MCF7 breast = tested on: MCF7 breast
NCI-H226 lung = tested on: NCI-H226 lung
DU-145 prostate = tested on: DU-145 prostate
COLO 205 colon = tested on: COLO 205 colon
SF-295 CNS = tested on: SF-295 CNS
CAKI-1 renal = tested on: CAKI-1 renal
SN12C renal = tested on: SN12C renal
MALME-3M melanoma = tested on: MALME-3M melanoma
OVCAR-4 ovarian = tested on: OVCAR-4 ovarian
RXF 393 renal = tested on: RXF 393 renal
UACC-257 melanoma = tested on: UACC-257 melanoma
OVCAR-3 ovarian = tested on: OVCAR-3 ovarian
HOP-92 NSCLC = tested on: HOP-92 NSCLC
SF-539 CNS = tested on: SF-539 CNS

In the case of `CC(Cc1ccc2c(c1)OCO2)N(C)C(=O)C1=CCN(C)CC1` (configuration not stated), the TGI (HS 578T breast) is reported as > 100 µM, the TGI (HCC-2998 colon) is reported as > 100 µM and the TGI (SR leukemia) is reported as > 100 µM. The TGI (UACC-62 melanoma) was > 100 µM, the TGI (786-0 renal) was > 100 µM and the TGI (SNB-75 CNS) was > 100 µM. For the same compound, the TGI (MOLT-4 leukemia) was > 100 µM, the TGI (OVCAR-8 ovarian) was > 100 µM and the TGI (K-562 leukemia) was > 100 µM. For the same compound, the TGI (T-47D breast) was > 100 µM, the TGI (SF-268 CNS) was > 100 µM and the TGI (RPMI-8226 leukemia) was > 100 µM. For the same compound, the TGI (MDA-N) was > 100 µM, the TGI (PC-3 prostate) was > 100 µM and the TGI (UO-31 renal) was > 100 µM. The TGI (SK-MEL-5 melanoma) was > 100 µM, the TGI (ACHN renal) was > 100 µM and the TGI (NCI-H23 lung) was > 100 µM. The TGI (BT-549 breast) was > 100 µM, the TGI (M14 melanoma) was > 100 µM and the TGI (NCI-H460 lung) was > 100 µM. The TGI (HL-60(TB) leukemia) was > 100 µM, the TGI (HOP-62 NSCLC) was > 100 µM and the TGI (SNB-19 CNS) was > 100 µM. For the same compound, the TGI (A549 NSCLC) was > 100 µM, the TGI (HCT-116 colon) was > 100 µM and the TGI (HT29 colon) was > 100 µM. The TGI (OVCAR-5 ovarian) was > 100 µM, the TGI (SK-MEL-28 melanoma) was > 100 µM and the TGI (TK-10 renal) was > 100 µM. For the same compound, the TGI (IGROV1 ovarian) was > 100 µM, the TGI (NCI-H522 lung) was > 100 µM and the TGI (SK-MEL-2 melanoma) was > 100 µM. For the same compound, the TGI (MDA-MB-231 breast) was > 100 µM, the TGI (MDA-MB-435) was > 100 µM and the TGI (LOX IMVI melanoma) was > 100 µM. For the same compound, the TGI (NCI/ADR-RES ovarian) was > 100 µM, the TGI (SK-OV-3 ovarian) was > 100 µM and the TGI (HCT-15 colon) was > 100 µM. The TGI (KM12 colon) was > 100 µM, the TGI (CCRF-CEM leukemia) was > 100 µM and the TGI (EKVX NSCLC) was > 100 µM. The TGI (SW-620 colon) was > 100 µM, the TGI (U251 CNS) was > 100 µM and the TGI (MCF7 breast) was > 100 µM. For the same compound, the TGI (NCI-H226 lung) was > 100 µM, the TGI (DU-145 prostate) was > 100 µM and the TGI (COLO 205 colon) was > 100 µM. The TGI (SF-295 CNS) was > 100 µM, the TGI (CAKI-1 renal) was > 100 µM and the TGI (SN12C renal) was > 100 µM. The TGI (MALME-3M melanoma) was > 100 µM, the TGI (OVCAR-4 ovarian) was > 100 µM and the TGI (RXF 393 renal) was > 100 µM. The TGI (UACC-257 melanoma) was > 100 µM and the TGI (OVCAR-3 ovarian) was > 100 µM.
`O=C1C(NS(=O)(=O)c2ccccc2)=C(N(Cc2ccccc2)Cc2ccccc2)C(=O)c2ccccc21` was tested, and the TGI (HS 578T breast) was > 100 µM, the TGI (SR leukemia) was > 100 µM and the TGI (UACC-62 melanoma) was > 100 µM. For the same compound, the TGI (786-0 renal) was > 100 µM, the TGI (SNB-75 CNS) was > 100 µM and the TGI (HOP-92 NSCLC) was > 100 µM. The TGI (MOLT-4 leukemia) was > 100 µM, the TGI (OVCAR-8 ovarian) was > 100 µM and the TGI (K-562 leukemia) was > 100 µM. The TGI (T-47D breast) was > 100 µM, the TGI (SF-268 CNS) was > 100 µM and the TGI (RPMI-8226 leukemia) was 72.7 µM. The TGI (MDA-N) was > 100 µM, the TGI (PC-3 prostate) was > 100 µM and the TGI (UO-31 renal) was 51.3 µM. For the same compound, the TGI (SK-MEL-5 melanoma) was > 100 µM, the TGI (ACHN renal) was > 100 µM and the TGI (NCI-H23 lung) was 73.2 µM. For the same compound, the TGI (BT-549 breast) was > 100 µM, the TGI (M14 melanoma) was > 100 µM and the TGI (NCI-H460 lung) was > 100 µM. The TGI (HL-60(TB) leukemia) was 66.1 µM, the TGI (HOP-62 NSCLC) was > 100 µM and the TGI (SNB-19 CNS) was > 100 µM. For the same compound, the TGI (A549 NSCLC) was > 100 µM, the TGI (HCT-116 colon) was > 100 µM and the TGI (HT29 colon) was > 100 µM. For the same compound, the TGI (OVCAR-5 ovarian) was > 100 µM, the TGI (SK-MEL-28 melanoma) was > 100 µM and the TGI (TK-10 renal) was > 100 µM. The TGI (SF-539 CNS) was > 100 µM, the TGI (IGROV1 ovarian) was > 100 µM and the TGI (SK-MEL-2 melanoma) was 45.8 µM. For the same compound, the TGI (MDA-MB-231 breast) was > 100 µM, the TGI (MDA-MB-435) was > 100 µM and the TGI (LOX IMVI melanoma) was > 100 µM. The TGI (NCI/ADR-RES ovarian) was > 100 µM, the TGI (SK-OV-3 ovarian) was > 100 µM and the TGI (HCT-15 colon) was > 100 µM. The TGI (KM12 colon) was > 100 µM, the TGI (CCRF-CEM leukemia) was 77.4 µM and the TGI (EKVX NSCLC) was > 100 µM. The TGI (SW-620 colon) was > 100 µM, the TGI (U251 CNS) was > 100 µM and the TGI (MCF7 breast) was > 100 µM. The TGI (NCI-H226 lung) was > 100 µM, the TGI (DU-145 prostate) was > 100 µM and the TGI (COLO 205 colon) was > 100 µM. For the same compound, the TGI (SF-295 CNS) was > 100 µM, the TGI (CAKI-1 renal) was > 100 µM and the TGI (SN12C renal) was > 100 µM. For the same compound, the TGI (MALME-3M melanoma) was 0.584 µM, the TGI (OVCAR-4 ovarian) was 59 µM and the TGI (RXF 393 renal) was 67.8 µM. For the same compound, the TGI (UACC-257 melanoma) was > 100 µM and the TGI (OVCAR-3 ovarian) was > 100 µM.
